Assay [1] deals with Tyrosine-protein kinase HCK (Homo sapiens) (UniProt P08631). As to the kind of experiment: Selectivity interaction (Upstate Kinase Profiler service (Millipore)) EUB0000056c HCK. The conditions noted are these: at 1 µM.
Assay [2] concerns the target T1, Mitogen-activated protein kinase kinase kinase 12 (Homo sapiens) (UniProt Q12852).
T1 sequence (whole entry): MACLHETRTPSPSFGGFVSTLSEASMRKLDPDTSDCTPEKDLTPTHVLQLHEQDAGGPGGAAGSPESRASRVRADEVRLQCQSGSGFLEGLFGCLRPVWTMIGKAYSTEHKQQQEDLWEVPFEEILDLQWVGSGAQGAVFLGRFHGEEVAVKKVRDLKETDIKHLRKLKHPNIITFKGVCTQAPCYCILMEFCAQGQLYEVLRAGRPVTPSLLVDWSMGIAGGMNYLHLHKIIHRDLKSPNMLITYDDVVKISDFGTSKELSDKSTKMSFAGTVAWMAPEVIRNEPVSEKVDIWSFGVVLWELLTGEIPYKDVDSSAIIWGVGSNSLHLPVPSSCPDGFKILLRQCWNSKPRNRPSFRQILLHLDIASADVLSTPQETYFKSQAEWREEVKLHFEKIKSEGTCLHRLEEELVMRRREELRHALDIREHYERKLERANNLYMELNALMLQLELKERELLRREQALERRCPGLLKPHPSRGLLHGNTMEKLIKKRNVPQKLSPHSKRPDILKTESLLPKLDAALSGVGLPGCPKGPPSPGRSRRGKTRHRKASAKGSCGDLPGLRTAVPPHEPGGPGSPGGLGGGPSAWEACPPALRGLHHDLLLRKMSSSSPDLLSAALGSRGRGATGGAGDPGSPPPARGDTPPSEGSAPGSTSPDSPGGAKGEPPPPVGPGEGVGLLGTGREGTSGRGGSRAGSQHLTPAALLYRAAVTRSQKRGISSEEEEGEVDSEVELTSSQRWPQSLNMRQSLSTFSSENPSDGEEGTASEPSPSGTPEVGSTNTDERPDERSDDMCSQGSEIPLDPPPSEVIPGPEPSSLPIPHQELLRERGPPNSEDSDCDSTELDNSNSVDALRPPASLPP
The following applies: at 10 µM.

The target in assay [3] is Serine/threonine-protein kinase mTOR (Homo sapiens, UniProt P42345). As to the kind of experiment: Selectivity interaction (Ambit KINOMEscan and KiNATiv profiling in Jurkat cells) EUB0000090b MTOR. Format: cell-based. The conditions noted are these: at 1 µM.
Assay [4] addresses Cyclin-dependent kinase 2 (Homo sapiens, UniProt P24941). As to the kind of experiment: Selectivity interaction (KinomeScan (DiscoverX)) EUB0001079a CDK2. The following applies: at 1 µM.
The target in assay [5] is Wee1-like protein kinase 2 (Homo sapiens) (UniProt P0C1S8). In words: Selectivity interaction (KinomeScan (DiscoverX)) EUB0001079a WEE2. The following applies: at 1 µM.
For the next assay, the target named is D(1A) dopamine receptor (Homo sapiens, UniProt P21728). In words: Selectivity interaction (Panel of kinases, GPCRs, ion channels and transporters (enzymatic assay)) EUB0000223bCl DRD1.
Sequence of D(1A) dopamine receptor (P21728 whole entry): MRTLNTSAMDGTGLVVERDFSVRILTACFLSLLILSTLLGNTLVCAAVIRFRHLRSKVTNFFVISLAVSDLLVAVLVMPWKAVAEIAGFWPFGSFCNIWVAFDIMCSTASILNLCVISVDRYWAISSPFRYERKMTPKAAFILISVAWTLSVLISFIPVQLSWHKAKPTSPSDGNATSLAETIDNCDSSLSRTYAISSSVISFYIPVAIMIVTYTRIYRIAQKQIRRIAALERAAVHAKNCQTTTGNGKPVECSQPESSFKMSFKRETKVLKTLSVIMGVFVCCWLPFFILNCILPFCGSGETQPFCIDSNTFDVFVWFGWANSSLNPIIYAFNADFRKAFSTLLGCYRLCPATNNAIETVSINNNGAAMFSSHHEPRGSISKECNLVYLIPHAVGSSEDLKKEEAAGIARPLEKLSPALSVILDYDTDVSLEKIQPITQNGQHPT
Assay [6] has as its target Microtubule-associated serine/threonine-protein kinase 1 (Homo sapiens) (UniProt Q9Y2H9). As to the kind of experiment: Selectivity interaction (KinomeScan (DiscoverX)) EUB0000666a MAST1. The conditions noted are these: at 10 µM.
The target in assay [7] is Receptor tyrosine-protein kinase erbB-3 (Homo sapiens) (UniProt P21860). As to the kind of experiment: Selectivity interaction (KinomeScan (DiscoverX)) EUB0000607a ERBB3. The following applies: at 10 µM.
Sequence of Receptor tyrosine-protein kinase erbB-3 (Homo sapiens) (P21860 whole entry): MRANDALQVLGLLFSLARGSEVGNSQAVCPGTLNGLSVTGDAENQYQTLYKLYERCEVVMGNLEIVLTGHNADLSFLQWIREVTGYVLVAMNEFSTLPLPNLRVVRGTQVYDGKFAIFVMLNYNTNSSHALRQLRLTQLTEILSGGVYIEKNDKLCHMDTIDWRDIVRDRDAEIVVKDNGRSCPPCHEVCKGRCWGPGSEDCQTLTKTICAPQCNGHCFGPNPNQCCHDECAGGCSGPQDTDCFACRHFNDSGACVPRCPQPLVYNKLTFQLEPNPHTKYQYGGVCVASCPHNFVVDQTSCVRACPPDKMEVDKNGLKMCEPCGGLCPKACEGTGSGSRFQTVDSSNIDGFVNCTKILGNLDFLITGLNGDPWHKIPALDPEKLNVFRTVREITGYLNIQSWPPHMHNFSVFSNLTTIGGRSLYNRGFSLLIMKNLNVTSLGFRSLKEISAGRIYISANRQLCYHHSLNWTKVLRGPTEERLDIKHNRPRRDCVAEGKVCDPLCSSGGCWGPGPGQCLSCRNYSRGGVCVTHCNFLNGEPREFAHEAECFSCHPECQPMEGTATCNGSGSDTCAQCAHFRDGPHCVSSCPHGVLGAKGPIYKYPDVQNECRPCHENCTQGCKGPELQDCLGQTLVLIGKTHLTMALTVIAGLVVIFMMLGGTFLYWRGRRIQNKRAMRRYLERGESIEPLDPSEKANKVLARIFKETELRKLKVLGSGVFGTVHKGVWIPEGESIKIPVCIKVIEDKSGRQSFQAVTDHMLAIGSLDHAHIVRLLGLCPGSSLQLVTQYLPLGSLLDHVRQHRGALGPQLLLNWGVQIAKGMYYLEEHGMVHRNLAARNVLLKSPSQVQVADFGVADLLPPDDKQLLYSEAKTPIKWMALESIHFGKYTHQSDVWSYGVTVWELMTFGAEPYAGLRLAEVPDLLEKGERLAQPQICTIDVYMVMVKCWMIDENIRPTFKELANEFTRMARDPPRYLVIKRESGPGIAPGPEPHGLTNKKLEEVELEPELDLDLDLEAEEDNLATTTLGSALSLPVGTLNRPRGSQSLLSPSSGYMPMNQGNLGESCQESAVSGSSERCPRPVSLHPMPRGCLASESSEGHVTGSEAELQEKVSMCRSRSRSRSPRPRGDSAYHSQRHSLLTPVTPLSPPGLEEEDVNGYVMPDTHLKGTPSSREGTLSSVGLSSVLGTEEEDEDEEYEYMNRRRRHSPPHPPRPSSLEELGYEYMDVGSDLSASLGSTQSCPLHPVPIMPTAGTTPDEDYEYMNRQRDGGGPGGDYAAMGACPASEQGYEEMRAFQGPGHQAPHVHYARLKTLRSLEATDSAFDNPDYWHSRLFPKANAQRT
In assay [8] the target is Calcium/calmodulin-dependent protein kinase type II subunit delta (Homo sapiens) (UniProt Q13557). In words: Selectivity interaction (ActivX KiNativ screen (kinase selectivity in THP-1 cell lysates)) EUB0000639a CAMK2D. The following applies: lysate, at 0.2 µM. Format: subcellular.
Sequence of Calcium/calmodulin-dependent protein kinase type II subunit delta (Homo sapiens) (Q13557 whole entry): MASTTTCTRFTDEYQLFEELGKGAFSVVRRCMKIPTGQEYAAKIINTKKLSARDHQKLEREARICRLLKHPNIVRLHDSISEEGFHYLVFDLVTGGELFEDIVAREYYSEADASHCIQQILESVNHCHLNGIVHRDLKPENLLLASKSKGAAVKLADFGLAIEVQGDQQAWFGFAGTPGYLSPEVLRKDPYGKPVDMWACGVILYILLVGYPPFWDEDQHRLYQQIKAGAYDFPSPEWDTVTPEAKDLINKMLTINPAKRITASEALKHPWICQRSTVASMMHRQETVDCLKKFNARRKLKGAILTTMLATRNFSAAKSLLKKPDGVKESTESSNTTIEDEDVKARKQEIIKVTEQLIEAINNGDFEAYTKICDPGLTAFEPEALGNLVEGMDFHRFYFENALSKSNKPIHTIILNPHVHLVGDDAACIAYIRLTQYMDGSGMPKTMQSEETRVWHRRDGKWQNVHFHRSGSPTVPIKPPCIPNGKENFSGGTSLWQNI
For the next assay, the target named is Focal adhesion kinase 1 (Homo sapiens, UniProt Q05397). In words: Selectivity interaction (ActivX KiNativ screen (kinase selectivity in THP-1 cell lysates)) EUB0000639a PTK2. Format: subcellular. The following applies: lysate, at 0.04 µM.
Sequence of Focal adhesion kinase 1 (Q05397 2-1052 limits assumed): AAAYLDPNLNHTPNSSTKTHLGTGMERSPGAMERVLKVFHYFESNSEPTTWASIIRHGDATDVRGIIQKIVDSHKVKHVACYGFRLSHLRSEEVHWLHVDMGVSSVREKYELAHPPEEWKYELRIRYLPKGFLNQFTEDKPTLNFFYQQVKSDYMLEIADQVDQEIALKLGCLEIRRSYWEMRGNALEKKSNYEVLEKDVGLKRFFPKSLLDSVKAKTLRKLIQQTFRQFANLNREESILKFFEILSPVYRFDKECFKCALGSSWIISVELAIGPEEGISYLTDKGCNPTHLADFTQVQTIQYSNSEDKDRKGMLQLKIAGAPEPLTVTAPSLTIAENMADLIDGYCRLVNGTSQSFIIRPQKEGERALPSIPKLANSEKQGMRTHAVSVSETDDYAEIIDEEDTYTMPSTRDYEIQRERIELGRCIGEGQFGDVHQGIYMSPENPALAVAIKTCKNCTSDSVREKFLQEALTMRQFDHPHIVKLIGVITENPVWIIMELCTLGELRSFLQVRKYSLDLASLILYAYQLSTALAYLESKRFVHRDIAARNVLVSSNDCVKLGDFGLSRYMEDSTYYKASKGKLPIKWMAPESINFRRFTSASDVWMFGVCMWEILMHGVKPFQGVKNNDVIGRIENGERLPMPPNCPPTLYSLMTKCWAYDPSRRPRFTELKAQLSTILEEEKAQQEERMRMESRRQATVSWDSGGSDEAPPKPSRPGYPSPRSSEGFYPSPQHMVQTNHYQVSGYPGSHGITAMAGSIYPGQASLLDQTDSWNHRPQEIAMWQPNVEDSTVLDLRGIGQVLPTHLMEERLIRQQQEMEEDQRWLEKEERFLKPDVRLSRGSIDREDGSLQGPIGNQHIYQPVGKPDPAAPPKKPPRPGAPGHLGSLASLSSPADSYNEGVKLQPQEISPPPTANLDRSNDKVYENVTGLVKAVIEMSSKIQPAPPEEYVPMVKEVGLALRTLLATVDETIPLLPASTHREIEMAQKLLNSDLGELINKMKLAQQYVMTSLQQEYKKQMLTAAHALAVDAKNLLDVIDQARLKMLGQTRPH
The target in assay [9] is Serine/threonine-protein kinase SBK1 (Homo sapiens) (UniProt Q52WX2). In words: Selectivity interaction (KinomeScan (DiscoverX)) EUB0000595a SBK1. The following applies: at 10 µM.
Assay [10] has as its target Cyclin-dependent kinase 5 (Homo sapiens, UniProt Q00535). In words: Selectivity interaction (KinomeScan (DiscoverX)) EUB0001619a CDK5. The conditions noted are these: at 1 µM.
Assay [11] concerns the target Serine/threonine-protein kinase MARK2 (Homo sapiens) (UniProt Q7KZI7). In words: Selectivity interaction (ActivX KiNativ screen (ex vivo kinase selectivity in human PBMCs)) EUB0001619a MARK2. The assay is classed as cell-based. The following applies: PBMC, at 1 µM.
Assay [12] has as its target Rho-associated protein kinase 1 (Homo sapiens) (UniProt Q13464). As to the kind of experiment: Selectivity interaction (Kinase panel (literature)) EUB0001199aCl ROCK1. The conditions noted are these: at 1 µM.

Where only a bound is given, the exact number is not on record here.

Sequence of Tyrosine-protein kinase HCK (Homo sapiens) (P08631 2-526 limits assumed): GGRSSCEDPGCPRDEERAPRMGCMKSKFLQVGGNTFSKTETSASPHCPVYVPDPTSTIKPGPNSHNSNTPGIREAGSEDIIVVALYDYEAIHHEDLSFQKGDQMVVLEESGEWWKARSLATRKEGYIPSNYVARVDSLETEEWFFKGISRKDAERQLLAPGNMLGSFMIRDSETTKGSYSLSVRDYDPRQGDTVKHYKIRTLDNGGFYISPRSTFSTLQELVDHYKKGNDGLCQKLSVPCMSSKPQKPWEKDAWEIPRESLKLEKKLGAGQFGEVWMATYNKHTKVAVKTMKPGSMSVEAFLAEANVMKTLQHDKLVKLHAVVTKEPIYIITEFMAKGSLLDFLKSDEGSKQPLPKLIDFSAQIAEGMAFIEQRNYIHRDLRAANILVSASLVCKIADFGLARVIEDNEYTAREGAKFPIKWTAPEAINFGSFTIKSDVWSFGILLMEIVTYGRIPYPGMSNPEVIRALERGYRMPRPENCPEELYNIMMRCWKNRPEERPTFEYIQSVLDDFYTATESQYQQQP
Sequence of Serine/threonine-protein kinase MARK2 (Homo sapiens) (Q7KZI7 whole entry): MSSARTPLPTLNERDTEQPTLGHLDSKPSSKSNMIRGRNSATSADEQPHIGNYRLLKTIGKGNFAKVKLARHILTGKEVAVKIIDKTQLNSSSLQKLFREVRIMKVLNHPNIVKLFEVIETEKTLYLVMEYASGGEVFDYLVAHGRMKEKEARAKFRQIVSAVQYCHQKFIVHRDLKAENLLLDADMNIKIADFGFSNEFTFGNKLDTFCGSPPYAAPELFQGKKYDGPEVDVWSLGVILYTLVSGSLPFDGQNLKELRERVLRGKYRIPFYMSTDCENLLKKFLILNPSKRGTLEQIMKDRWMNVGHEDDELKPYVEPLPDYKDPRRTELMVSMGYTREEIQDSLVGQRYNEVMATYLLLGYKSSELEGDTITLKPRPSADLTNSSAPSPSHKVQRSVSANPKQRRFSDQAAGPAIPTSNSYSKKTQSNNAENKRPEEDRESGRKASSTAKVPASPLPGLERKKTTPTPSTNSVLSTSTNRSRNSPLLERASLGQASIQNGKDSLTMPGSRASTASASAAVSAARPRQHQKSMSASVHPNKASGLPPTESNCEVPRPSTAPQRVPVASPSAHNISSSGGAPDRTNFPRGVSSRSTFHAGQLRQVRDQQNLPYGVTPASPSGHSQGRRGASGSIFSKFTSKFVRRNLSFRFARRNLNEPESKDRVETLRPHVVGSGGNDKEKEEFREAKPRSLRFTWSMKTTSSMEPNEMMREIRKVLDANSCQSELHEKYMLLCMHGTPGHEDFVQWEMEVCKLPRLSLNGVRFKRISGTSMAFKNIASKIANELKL
Sequence of Cyclin-dependent kinase 5 (Q00535 whole entry, looked up): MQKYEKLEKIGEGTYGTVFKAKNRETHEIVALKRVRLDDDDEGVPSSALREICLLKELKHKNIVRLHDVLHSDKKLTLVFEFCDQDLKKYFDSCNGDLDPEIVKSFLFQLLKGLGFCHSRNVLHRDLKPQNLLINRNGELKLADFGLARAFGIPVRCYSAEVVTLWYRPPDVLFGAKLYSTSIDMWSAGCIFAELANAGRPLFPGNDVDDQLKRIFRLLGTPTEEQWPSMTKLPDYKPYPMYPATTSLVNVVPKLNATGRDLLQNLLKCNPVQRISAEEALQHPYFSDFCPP

Turning to `Cc1ccc(-c2ccc3c(ccc4sc5c(c43)NC[C@@H](C)NC5=O)n2)cn1`, the % of inhibition in [1] turned out to be 46%.
The compound `Cc1cc([C@@H](C)Nc2ccccc2C(=O)O)c2nc(N3CCOCC3)cc(=O)n2c1` [AZD-6482] came in with a % of control in assay [2] of 85%.
Take `CN(C)C/C=C/C(=O)Nc1ccc(C(=O)N2CCCC(Nc3ncc(Cl)c(-c4c[nH]c5ccccc45)n3)C2)cc1` (centres undefined): the % of control in [3] was found to be 100%.
Regarding `Nc1cnc(N2CCc3cc(S(=O)(=O)Nc4c(F)cc(Cl)cc4F)cc(N4CCCC4=O)c32)nc1` [TP-020n], the % of control amounted to 100% in [4] and 93% in assay [5].
At D(1A) dopamine receptor, `COc1cc(C(=O)N2CC[C@@H](O)[C@@H](N)C2)cc2nc(-c3cc4ccccc4n3CC3CC3)n(C)c12` had a pXC50 of less than 4.5 M.
Take `O=C(NOC[C@H](O)CO)c1ccc(F)c(F)c1Nc1ccc(I)cc1F`: the % of control in assay [6] worked out at 100%.
As for `CNC(=O)Nc1ccc(-c2nc(N3CC4CCC(C3)O4)c3cnn(C4CCC5(CC4)OCCO5)c3n2)cc1`, the % of control in assay [7] came to 100%.
Regarding `CC[C@@H]1[C@H](F)C(=O)N[C@@H]1COc1nccc2cc(C(N)=O)c(OC)cc12` [ZIMLOVISERTIB], the figures for the % of inhibition (in [8]; on Focal adhesion kinase 1) were 6.9% and -20.7%, respectively.
Regarding `COCC(=O)NC/C=C/c1ccc2ncnc(Nc3ccc(Oc4ccc(C)nc4)c(C)c3)c2c1` [CP-724714], in assay [9], the % of control was 100%.
Compound `N#Cc1cccc(-c2c[nH]c3ncnc(N4CCOCC4)c23)c1` had a % of control in assay [10] of 92%. The % of inhibition in assay [11] is 41%.
`CN1Cc2nccc(-c3cn(C)nc3-c3ccc(F)cc3)c2C1=O`: the % of inhibition in assay [12] is -3%.

Values taken from ChEMBL document CHEMBL5465560, “Selectivity Literature for EUbOPEN Chemogenomic Library” (2024).
